“And” between values parts separate entries of the source, which are not always exact repeats. Equal entries are not always repeated.

Series [1] can be described thus: Effects of absorption enhancers on the penetration of insulin into eyeballs. In kind it is in vivo, New Zealand white rabbits. The note with it: 1% insulin plus enhancer.
The subject of series [2] is blood glucose. Put plainly: Effects of absorption enhancers plus insulin on blood glucose concentrations. Format: in vivo, New Zealand white rabbits. The note with it: for % Change in Blood Glucose Concentration / Blood Glucose Concentration After / Blood Glucose Concentration Before: eye drops 1% insulin plus 1% absorption enhancer (Control: 1% insulin only).
Series [3] can be described thus: Blood concentration of TRH, LHRH and glucagon after ocular instillation or i.v. injection (Example 5). The source says: The concentrations of peptides in the blood were expressed in ng/ml.
A short description of series [4]: Blood enkephalin-equivalent concentration after ocular instillation or i.v. injection. The note with it: enkephalin 50 ug i.v.
Series [5] is described as follows: Amount of enkephalin-equivalent remaining in eye tissues at the end of 12 hr experiment.
The nature of series [6]: Effects of absorption enhancers on insulin penetration (blood insulin concentration).
Setting [7] is: 1% enhancer with 1% insulin eye drops.

Consider polyoxyethylene-9-lauryl ether [BL-9], for which, in series [1], the “% of insulin taken up by the eyeball” value came to 0.5221% and the “Absolute amount of insulin in the eyeball” value (“Absolute amount of insulin” below) was found to be 1305 ng. In series [2], the “% Change in Blood Glucose Concentration” value is given as 42%; the “Blood Glucose Concentration After” value was 56 mg % and 56 ± 3 mg %; the “Blood Glucose Concentration Before” value is 97 mg % and 97 ± 2 mg %.
With `O=C(O)CNC(=O)C(CS)Cc1ccccc1` (racemic) [D,L-Thiorphan, D,L-thiorphan], the “effect of added peptidase inhibitors on systemic absorption of TRH” value in series [3] (Leu-Leu 4 mM, Bestatin 60 uM, D,L-Thiorphan 0.6 uM) is listed as “did not significantly enhance the systemic absorption of TRH”.
For the molecule `C[C@H](CCC(=O)NCC(=O)O)[C@H]1CC[C@H]2[C@@H]3[C@H](O)C[C@@H]4C[C@H](O)CC[C@]4(C)[C@H]3C[C@H](O)[C@]12C` [Glycocholate, sodium glycocholate], in series [1], the “% of insulin taken up by the eyeball” value is 0.0804% and the “Absolute amount of insulin” value was found to be 200 ng. Besides, in series [2], the “% Change in Blood Glucose Concentration” value was found to be 13%; the “Blood Glucose Concentration After” value was 94 mg % and 94 ± 4 mg %; the “Blood Glucose Concentration Before” value was 108 mg % and 108 ± 7 mg %.
As for `CC(C)C[C@H](NC(=O)[C@H](Cc1ccccc1)NC(=O)CNC(=O)CNC(=O)[C@@H](N)Cc1ccc(O)cc1)C(=O)O` [enkephalin, Leucine-enkephalin (5-L-leucine)], the “Tx of blood concentration decline” value in series [4] is “less than 30 min”. Further, the “lowest point of blood concentration” value in series [4] (in 5 hrs) is 22 ng/mL. Moreover, the “Residual enkephalin remaining in tissues: % of instilled” value in series [5] (Choroid, 5% enkephalin) was found to be 0.0110 ± 0.008%; in series [5] (Ciliary-Body, 0.1245% enkephalin), 0.0156 ± 0.003%; in series [5] (Ciliary-Body, 1% enkephalin), 0.0108 ± 0.005%; in series [5] (Ciliary-Body, 5% enkephalin), 0.0042 ± 0.002%; in series [5] (Cornea, 1% enkephalin) it was 0.0601 ± 0.015%; in series [5] (Cornea, 5% enkephalin), 0.0427 ± 0.012%. Further, the “Residual enkephalin remaining in tissues: % of instilled” value worked out at 0.0252 ± 0.003% in series [5] (Iris, 0.1245% enkephalin); 0.0117 ± 0.005% in series [5] (Iris, 1% enkephalin); 0.0834 ± 0.013% in series [5] (Lens, 0.1245% enkephalin); 0.0118 ± 0.004% in series [5] (Retina, 0.1245% enkephalin); 0.0036 ± 0.002% in series [5] (Retina, 5% enkephalin); 0.3019% in series [5] (Total, 0.1245% enkephalin). Besides, the “Residual enkephalin remaining in tissues: % of instilled” value came out at 0.1713% in series [5] (Total, 1% enkephalin) and 0.1136% in series [5] (Total, 5% enkephalin).
`C[N+](C)(C)CCCCCCCCCC[N+](C)(C)C` [Decamethonium, decamethonium bromide]: in series [2], the “% Change in Blood Glucose Concentration” value turned out to be 8%, the “Blood Glucose Concentration After” value is listed as 83 ± 2 mg % and the “Blood Glucose Concentration Before” value was 90 ± 3 mg %.
As for `CC(C)C[C@H](NC(=O)CNC(=O)[C@H](Cc1ccc(O)cc1)NC(=O)[C@H](CO)NC(=O)[C@H](Cc1c[nH]c2ccccc12)NC(=O)[C@H](Cc1cnc[nH]1)NC(=O)[C@@H]1CCC(=O)N1)C(=O)N[C@@H](CCCNC(=N)N)C(=O)N1CCC[C@H]1C(=O)NCC(N)=O` [LHRH, luteinizing hormone-releasing hormone], the “eye-drop concentration sufficient to reach therapeutic effective blood concentration” value in series [3] (rabbit, in vivo) is listed as 0.005%.
For the molecule `NC(=O)[C@@H]1CCCN1C(=O)[C@H](Cc1cnc[nH]1)NC(=O)[C@@H]1CCC(=O)N1` [TRH, Thyrotrophin-releasing hormone], the “plateau blood TRH concentration” value in series [3] (female, New Zealand white, rabbit, in vivo, topical or ocular, 1 % solution (25 ul)) turned out to be 26 ng/mL. For the same molecule, in series [3] (rabbit, in vivo), the “eye-drop concentration giving a therapeutic blood concentration of TRH” value is not below 0.0025%, the “time remained at the plateau” value is given as “approximately 10 hrs” and the time to peak is 60 min.
Consider “polyoxyethylene sorbitan monolaurate [Tween 20]”, for which, in series [1], the “% of insulin taken up by the eyeball” value amounted to 0.0771% and the “Absolute amount of insulin” value worked out at 192 ng. The “effect on blood glucose” value in series [2] (setting [7]) is recorded as “a minute reduction in blood glucose concentration”. In series [2], the “% Change in Blood Glucose Concentration” value is recorded as 14%, the “Blood Glucose Concentration After” value is 77 ± 9 mg % and the “Blood Glucose Concentration Before” value was found to be 90 ± 3 mg %. In series [6] (setting [7]), the “effect on insulin absorption” value was “only a slight increase in insulin absorption”. The “Insulin peak Concentration” value in series [6] (eye drops 1% insulin plus 1% absorption enhancer (Control: 1% insulin only), 25 ul) turned out to be 8.8 ± 0.9 ng/mL.
For `CC(=O)O[C@H]1C[C@@]2(C)[C@@H](C[C@@H](O)[C@H]3[C@@]4(C)CC[C@@H](O)[C@@H](C)[C@@H]4CC[C@@]32C)/C1=C(\CCC=C(C)C)C(=O)O` [Fusidic acid, sodium fusidate], in series [2], the “% Change in Blood Glucose Concentration” value was found to be 43%; the “Blood Glucose Concentration After” value was 51 mg % and 51 ± 2 mg %; the “Blood Glucose Concentration Before” value was 90 mg % and 90 ± 3 mg %.

The values above are taken from US5278142A, “Systemic delivery of polypeptides through the eye” (Orbon Corporation, priority 1992, dated 1994).
